The record followed here is patent publication US8673548B2, “Genes and polypeptides relating to breast cancers” (Oncotherapy Science, Inc., priority 2006, dated 2014).

Holding throughout (assay type): cell-based, human
Data set [1] deals with CDK1. In words: immunoblotting of G2/M-arrested cells incubated with CDK1 inhibitor. The settings on record: T47D. As for the experimental part: To detect expression of PBK/TOPK (WT, T9A, KD, T9A/KD), p47, p97 or PP1α proteins, immunoblottings were performed according to previous report (Park et al., 2006). Briefly, cells were lysed in lysis buffer (50 mM Tris-HCl, pH 8.0/150 mM NaCl/0.5% NP-40) followed by homogenization and incubation on ice for 30 minutes, only soluble fractions were separated from cell debris by centrifugation. After SDS-PAGE (sodium dodecyl sulfate polyacrylamide gel electrophoresis), the proteins were blotted onto nitrocellulose membrane (GE Healthcare, Buckinghamshire, United Kingdom), incubated with the corresponding antibodies, and visualized using an ECL detection kit (GE Healthcare). To collect the mitotic cells, the present inventors employed a “mitotic shake-off” method as described previously (Dechat T et al., EMBO J. 17: 4887-902 (1998)). A protein-protein interaction was examined by immunoprecipitation after co-transfection with above described constructs of interest to COS-7 cells using the FuGene6 reagent (Roche) as described previously (Shimo A et al., Cancer Sci 98: 174-81 (2007)) except using an anti-6×His antibody (Santa Cruz Biotechnology) to precipitated p97/VCP-myc-6×His protein. After washing 5 times with lysis buffer, immunocomplexes were loaded on a SDS-PAGE gel and immunoblotted as described above.
An active recombinant PBK/TOPK protein was purchased from Invitrogen (Carlsbad, Calif.), and recombinant proteins of Histone H3 and Protein Phosohatase 1-alpha (PP1α were from Upstate Biotechnology (Lake Placidy, N.Y.). Cyclin-dependent kinase-1 (CDK1 kinase) (cdc2/cyclin B1) and lambda protein phosphatase (λPPase) were from New England Biolabs (Ipswich, Mass.). The glutathione S-transferase (GST)-tagged PBK/TOPK (GST-PBK/TOPK) protein was expressed in Escherichia coli and purified with Glutathione Sepharose 4B beads (GE Heath care, Buckinghamshire, United Kingdom) according to the previous report (Lin et al., 2007). […]
In general terms: In western blotting, separated proteins are transferred to a membrane and probed.

Data set [2] relates to PBK/TOPK. In words: western blot of PBK/TOPK phosphorylation after okadaic acid. The settings on record: T47D. Here is the method: Wild-type and kinase-dead PBK/TOPK proteins were exogenously expressed by transfection into T47D cell using pCAGGS-nHA expression vector. Whole cell lysates were harvested 48 h after the transfection. The cells were lysed in the cell lysis buffer as described above. The following procedures are the same as described above except that anti-HA rat high-affinity antibody (Roche) was used for the antibody reaction. […] The following procedures were also carried out as described above. Phosphorylated protein was confirmed by treatment with 1 U of lambda protein phosphatase (New England Biolabs, Ipswich, Mass.) at 30° C. for 2 h.

For data set [3], the system named is PBK/TOPK. Kind of data set: western blot of PBK/TOPK after nocodazole. The settings on record: T47D; 6 to 18 h.
Data set [4] has as its system T47D cells. In words: FACS cell cycle analysis after nocodazole. Here is the method:
For PBK/TOPK, the cell cycle of cultured T47D breast cancer cells were synchronized via the treatment with aphidicolin (Sigma-Aldrich) for 16 h, washing 5 times with PBS (−), and addition of fresh culture media to release from cell-cycle arrest. For 15 h (every 3 h) after releasing, cells were collected and fixed with 70% ethanol, and then kept at 4° C. before use. Cells were incubated with 10 mg/mL RNaseI in PBS (−) at 37° C. for 30 min and stained with 50 μg of propidium iodide at room temperature for 30 min. Cell suspensions at each time point were analyzed with FACscan (Becton Dickinson, Franklin Lakes, N.J.).
To collect the G2/M arrested cells, 0.3 μg/mL of nocodazole (Sigma-Aldrich) was treated to culture media for the last 16 hours before collection.

Data set [5] has as its system A7322. Kind of data set: semi-quantitative RT-PCR of A7322 after siRNA vector transfection. The settings on record: BT-549 and BT-474 cells; compared with psiU6BX-Mock. As for the experimental part:
Inventors established a vector-based RNAi (RNA interference) expression system using psiU6BX3.0 siRNA expression vector as described previously (Taniuchi K et al. Cancer Res., 65:105-112. 2005.). siRNA expression vectors against A7322 (psiU6BX3.0-A7322), F3374V1 (psiU6BX3.0-F3374V1), EGFP (psiU6BX3.0-EGFP), Scramble (psiU6BX3.0-SCR) and Mock (psiU6BX3.0-Mock) were prepared by cloning of double-stranded oligonucleotides into the BbsI site of the psiU6BX3.0 vector. The target sequences of synthetic oligonucleotides for siRNA were as follows;
(§1) Human breast cancer cells-lines, BT-549 and BT-474 (for A7322) and T47D and HBC4 (for F3374), were plated onto 10-cm dishes (2×10^6 cells/dish) and transfected with 8 μg each of psiU6BX3.0-Mock (without insertion), psiU6BX3.0-A7322 (#2, #3 and a mismatch construct (m#3) including three-base substitutions in #3), psiU6BX3.0-F3374V1 (#1, and #4), psiU6BX3.0-EGFP, psiU6BX3.0-SCR using FuGENE6 reagent (Roche) as described above. Inventors selected the psiU6BX3.0-introduced BT-549, BT-474, T47D and HBC4, with medium containing 0.2 mg/ml or 1 mg/ml of neomycin (Geneticin, Gibco BRL, Carlsbad, Calif.), respectively. […] To evaluate an effect of siRNAs, total RNAs were extracted from the cells at 4-day incubation with neomycin, and then the knockdown effect of siRNAs was examined by a semi-quantitative RT-PCR using specific primer sets;

Data set [6] concerns BT-549 and BT-474 cells. In words: colony-formation and MTT assays, A7322 siRNA. As for the experimental part: as §1
Transfectants expressing siRNA were grown for 4 weeks in selective media containing neomycin, then fixed with 4% paraformaldehyde for 15 min before staining with Giemsa's solution (Merck, Whitehouse Station, N.J.) to assess colony number. To quantify cell viability, MTT assays were performed with cell counting kit-8 4 days after transfection according to manufacturer's recommendation (Wako, Osaka, Japan). Absorbance at 570 nm wavelength was measured with a Microplate Reader 550 (Bio-Rad). […]
On the technique in general: Tetrazolium dyes change colour on reduction, which living cells bring about.

Data set [7] concerns F3374 protein. Kind of data set: western blot of F3374 protein after siAURKB. As to conditions: T47D cells; vs siEGFP. As for the experimental part:
To detect the endogenous F3374 and AURKB proteins in breast cancer cell lines (HBC4, BT-549, HBC5, HBL100, HCC1937, MCF-7, MDA-MB-231, MDA-MB-453, SKBR3, and T47D, and ZR75-1) and human mammary gland epithelial cell (HMEC), cells were lysed in lysis buffer (50 mM Tris-HCl, pH 8.0/150 mM NaCl/0.5% NP-40) including 0.1% protease inhibitor cocktail III (Calbiochem, San Diego, Calif.). The amount of total protein was estimated by protein assay kit (Bio-Rad, Hercules, Calif.), and then proteins were mixed with SDS-sample buffer and boiled before loading at 10% SDS-PAGE gel. After electrophoresis, the proteins were blotted onto nitrocellulose membrane (GE Healthcare). After blocking with blocking solution (4% BlockAce; Dainippon Pharmaceutical. Co., Ltd, Osaka, Japan), membranes blotting proteins were incubated with anti-F3374 polyclonal antibody at 1:100 dilutions or anti-AURKB rabbit polyclonal antibody (abcam, Cambridge, UK) at 1:100 dilutions for detection of endogenous F3374 or AURKB protein. Finally the membrane was incubated with HRP conjugated-secondary antibody and protein-bands were visualized by ECL detection reagents (GE Healthcare). Beta-actin was examined to serve as a loading control. […]

In data set [8] the test system is HBC4 cells. Kind of data set: microscopy of morphological changes after siF3374. As to conditions: vs siEGFP. The text has this: (§2) Furthermore, the present inventors used siRNA oligonucleotides (Sigma Aldrich Japan KK, Tokyo, Japan) due to its high transfection efficiency to further verify the knockdown effects of F3374 and AURKB on cell morphology. The sequences targeting each gene were as follows:
(§3) T47D or HBC4 cells (2.5×10^5 cells in 10 cm dish for FACS analysis) cells were transfected with those siRNAs using Lipofectamin RNAiMAX (Invitrogen) in Optimem (Invitrogen) medium according to the instructions of manufacture. Forty-eight hours after transfection, morphological changes of the HBC4 cells were examined by microscopy and by immunocytochemical staining analysis using Alexa Fluor 594 Phalloidin (Molecular Probe).

In data set [9] the test system is F3374. Kind of data set: western blot of F3374 after siF3374 oligonucleotide. As to conditions: HBC4 cells.
Source text: as §2, §3

With `CCn1cnc2c(Nc3cccc(Cl)c3)nc(N[C@@H]3CCCC[C@@H]3N)nc21` [CDK1 inhibitor, CGP74514A], in [1] (0 to 4 hours), the “phosphorylation level of the Rb protein at Ser807 and 811” value is recorded as “decreased phosphorylation level”; the “phosphorylation of PP1α at Thr320” value is given as “reduced phosphorylation”. In [1] (0 to 4 hours after nocodazole 16 hours), the “phosphorylation of PBK/TOPK induced by G2/M arrest” value is reported as “diminished in time-dependent manner”.
Regarding `C=C1[C@@H](O)[C@@H]2O[C@]3(CC[C@H](/C=C/[C@@H](C)[C@@H]4CC(C)=C[C@@]5(O[C@H](C[C@@](C)(O)C(=O)O)CC[C@H]5O)O4)O3)CC[C@H]2O[C@@H]1[C@@H](O)C[C@H](C)[C@H]1O[C@@]2(CCCCO2)CC[C@H]1C` [OA, okadaic acid], the “phosphorylation of PBK/TOPK” value was “induced” in data set [2] (100 nM for 9 hours) and “not” in data set [2] (low concentration (less than 100 nM)).
On to `COC(=O)Nc1nc2ccc(C(=O)c3cccs3)cc2[nH]1` [nocodazole], for which the “intensity of high-molecular (phosphorylated) band of endogenous PBK/TOPK” value in data set [3] was “elevated in a time-dependent manner”. Further, the “proportion of cells at the G2/M phase” value in [4] (6 to 18 h) was “elevated”. Moreover, in data set [4] (treatment for 16 hours), the “cells synchronized at G2/M phase” value was 61-70%.
As to “m#3: mismatch siRNA with 3-bp replacement in A7322 si-#3, 5′-AATATTCGATCTCTGCCACAC-3′ (SEQ ID NO: 36) (listed as DNA, chemistry not given here)”, in data set [5], the “expression level of A7322” value is reported as “no suppressive effect”. Further, in data set [6], the “growth of BT-549 and BT-474 cells” value is reported as “no suppressive effect”.
In the case of “siAURKB: siRNA oligonucleotide 5′-AAGGUGAUGGAGAAUAGCAGU-3′ (SEQ ID NO: 66) targeting AURKB (listed as RNA, chemistry not given here)”, in [7], the “phosphorylated F3374 protein” value is “significant decrease” and the “total F3374 protein” value is on record as “significant decrease”.
Turning to “siF3374: siRNA oligonucleotide 5′-ACUCCUACGUUCUCUAUUA-3′ (SEQ ID NO: 65) targeting F3374 (listed as RNA, chemistry not given here)”, in [8], the “morphological alterations: cell size” value is listed as “enlargement of the size of the cells” and the “morphological alterations: cytokinesis” value is reported as “appearance of the intercellular bridges between two separating-cells”. Moreover, the “knockdown effect at the protein level (F3374)” value in data set [9] is given as “significant knockdown effect”.
